Entries after “also recorded” stand apart in the source; their conditions may differ. Where a SMILES comes first, the peptide text is derived from it. The star is where a group is joined. Cbz = O=C(OCc1ccccc1)*; Bz = O=C(c1ccccc1)*
Columns and labels:
[1] = test system: Staphylococcus aureus strain 8325-4/pMP25; assay: Growth in presence of test compounds in the Agr screen; conditions: compared to untreated Agr+ cells; screen at 10 μg/ml final, 6 hours, 35° C.
Agr P3 promoter = assay: Agr P3-β-lactamase fusion screen: β-lactamase activity; conditions: for Status from algorithm: Table 3; for β-Lactamase inhibition: corrected for cell density, screen at 10 μg/ml final, 6 hours, 35° C., negative = induction; for Behaviour in the P3-β-lactamase screen (in words): text
[2] = test system: B. subtilis strain 168 sporulation; assay: Sporulation; assay type: cell-based, Bacillus subtilis; conditions: B. subtilis strain 168, compared to untreated controls
Text: Sporulation: Sporulation is a well-characterized event in many organisms, including Bacillus subtilis (spoIIJ/spo0A or spoIIJ/spo0F, Losick et al., Annu. Rev. Genet. 20:625-669 (1986); Smith, The initiation of sporulation,pp. 185-210, In I. Smith et al. eds., Regulation of procaryotic development, American Society for Microbiology, Washington, D.C. (1989)). It can be induced in various media (Leighton and Doi, J. Biol. Chem. 246:3189-3195 (1971); Piggot and Curtis, J. Bacteriol. 169:1260-1266 (1987)), and can be easily assayed (Nicholson and Setlow, Sporulation, germination, and outgrowth, pp. 391-429, In C. R. Harwood and S. M. Cutting eds., Molecular biological methods for Bacillus, John Wiley and Sons, Ltd., Chichester, West Sussex, England (1990)). Briefly, by heating the cells to 80-85° C. for 15-20 min, undifferentiated cells are killed while spores survive. Therefore, by determining the difference in viable cell count of control cultures versus heat treated cultures, it is possible to calculate the percent sporulation for a given culture or condition. Compounds that inhibit the signal transduction system responsible for the induction of sporulation will lower the viable cell count of the heat treated culture.

protein A = assay: Protein A expression immunoblot; assay type: cell-based, Staphylococcus aureus; conditions: Table 4; relative to Agr- mutant cells
Procedure: FIG. 18. Immunodetection of staphylococcal protein A in treated and untreated cultures. Cells were grown in presence of compounds 1, 2, or 3 to a similar density (O.D. 600 nm--0.5-0.6). Cells were lysed using lysostaphin prior to separation of cell surface proteins by SDS-PAGE. After electrophoretic transfer of proteins from the gel onto a nitrocellulose membrane, detection of protein A on the blot was possible by using a specific anti-protein A antibody and a second antibody that allowed chemiluminescent detection of immune complexes. The chemiluminescence was captured by autoradiography.
Protein A. Protein A expression is assayed by immunoblots of SDS-Page separated total cell proteins (Patel et al., Infection and Immunity 55:3103-3110 (1987)).

RNAIII [3] = assay: RNAIII Northern Blot
RNAIII [4] = assay: RNAIII Northern Blot in clinical strains; assay type: cell-based, Staphylococcus aureus; conditions: several clinical strains of S. aureus (no. 212, 213, 215, and 217), FIG. 20
Text: FIG. 20. Northern Blots for RNAIII detection in several clinical strains of S. aureus (no. 212, 213, 215, and 217) grown in the presence of Compound 10. Untreated strain 8325-4 (Agr+) is also represented and acts as a control to show the maximal amounts of RNAIII also detected in all clinical strains grown without the test compound.

[5] = test system: S. typhimurium chemotaxis; assay: Chemotaxis (swarm agar plates); assay type: cell-based, Salmonella typhimurium; conditions: S. typhimurium on ribose-containing swarm agar plates
Text: Chemotaxis: Motility has been studied in a variety of bacteria. The molecular mechanisms of motility have been best characterized in E. coli and S. typhimurium but analogs of the molecular components have been detected in both Gram-negative and Gram-positive organisms (Morgan et al., J. Bacteriol. 175:133-140 (1993)). A two-component regulatory system composed of either cheA/cheY or cheA/cheB (Stewart and Dahlquist, Chem. Rev. 87:997-1025 (1987); MacNab, Motility and Chemotaxis, pp. 732-759, In F. C. Neidhardt, et al., ed., Escherichia coli and Salmonella typhimurium: cellular and molecular biology, American Society for Microbiology, Washington, D.C. (1987)), is central to the ability of these organisms to detect and respond appropriately to chemical substances. Such response can be detected on minimal swarm agar plates containing a chemoattractant (sugars or amino acids) (J. S. Parkinson, J. Bacteriol. 126:758-770 (1976)), or a capillary assay system, in which chemoattractant is placed in a capillary tube and immersed in a liquid bacterial culture. Bacteria capable of chemotaxis will swim into the capillary and can be detected by performing viable cell counts (Adler, J. Gen. Microbiol. 74:77-91 (1973)). […]

alpha-hemolysin = assay type: cell-based, Staphylococcus aureus
Staphylococcus aureus = assay: Mucin-enhanced murine peritonitis model; assay type: in vivo, mice (Balb/c); conditions: challenge dose of 10^10 cfu; 3.15 mg/kg

With `C=C(C)C=CCC1C(C)(O)CCC2C(C)(C)CCCC21C` (stereo not shown) [Compound 1] the Growth [1] was 105%, the Status from algorithm (Agr P3 promoter) was “Active” and the β-Lactamase inhibition (Agr P3 promoter) was 75%.

In the case of `CC(=O)OC1CCC2(C)C(CC(=O)C3(C)C2CCC2(C)C(c4ccoc4)OC(=O)C4OC423)C1(C)C` (stereo not shown) [Compound 2], the Growth [1] is reported as 122%, the Status from algorithm (Agr P3 promoter) is reported as “Active” and the β-Lactamase inhibition (Agr P3 promoter) is reported as 84%.

`CC(=O)OC1CC2C(C)(C)CCCC2(C)C2CCC3(C)C(=CC(=O)OC3c3ccoc3)C12C` (stereo not shown) [Compound 3] was tested, and the Growth [1] was 70%, the Status from algorithm (Agr P3 promoter) was “GR and Active” and the β-Lactamase inhibition (Agr P3 promoter) was 83%. The “decrease in percent sporulation” value [2] was “more than 50%”.

For `CC(=O)OC1CCC2(C)C(CCC3C4CC5OC6(CCC(C)CO6)C(C)C5C(C)=C4CC32)C1` (stereo not shown) [Compound 6], the Growth [1] was 72%, the “Protein A expression” value (protein A) was “[+]” and the Status from algorithm (Agr P3 promoter) was “GR and Inducer”. For the same compound, the β-Lactamase inhibition (Agr P3 promoter) was -111%, the “Behaviour in the P3-β-lactamase screen (in words)” value (from here on “Behaviour”) (Agr P3 promoter) was “enhance the production of β-lactamase; also recorded: showed inducer rather than inhibitor activity” and the “Behaviour” value (Agr P3 promoter; listed as compound 6) was “increased activity of the β-lactamase reporter”. The “RNAIII production (in words)” value (RNAIII [3]; FIGS. 14 and 15) was “allowed overexpression of RNAIII” and the “RNAIII production (in words)” value (RNAIII [3]; FIGS. 14 and 15, listed as compound 6) was “marked increase in RNAIII”.

In the case of `CC(C)CC(NC(=O)OCc1ccccc1)C(=O)NC(Cc1ccc(O)cc1)C(N)=O` (stereo not drawn) [Compound 7] (Cbz-Leu-Tyr-NH2; configuration not given here), the Growth [1] is reported as 103%, the Status from algorithm (Agr P3 promoter) is reported as “Active” and the β-Lactamase inhibition (Agr P3 promoter) is reported as 87%.

In the case of `CC(C)CC(NC(=O)c1ccccc1)C(=O)NC(Cc1ccc(O)cc1)C(N)=O` (stereo not drawn) [Compound 8] (Bz-Leu-Tyr-NH2; configuration not given here), the Growth [1] is reported as 101%, the Status from algorithm (Agr P3 promoter) is reported as “Active” and the β-Lactamase inhibition (Agr P3 promoter) is reported as 84%.

`CCCc1c(C(=O)Nc2cccc(C(F)(F)F)c2)cnn1-c1ccccc1` [Compound 9] was tested, and the Growth [1] was 91%, the Status from algorithm (Agr P3 promoter) was “Active” and the β-Lactamase inhibition (Agr P3 promoter) was 86%.

In the case of `O=C(Nc1ccccc1)OC(Cc1ccccc1)C(F)(F)F` (stereo not shown) [Compound 10], the Growth [1] is reported as 107%, the “RNAIII expression in clinical strains (in words)” value (RNAIII [4]) is reported as “greatly reduced” and the Status from algorithm (Agr P3 promoter) is reported as “Active”. The β-Lactamase inhibition (Agr P3 promoter) was 84%.

With `CC(CS)=NOC(=O)c1c(-c2ccccc2)noc1C` [Compound 11] the “chemotaxis effect (in words)” value [5] was “deregulated chemotaxis and enhanced swarm diameters of S. typhimurium; also recorded: not a chemi-attractant or -repellant itself”, the Growth [1] was 104% and the Status from algorithm (Agr P3 promoter) was “Active”. For the same compound, the β-Lactamase inhibition (Agr P3 promoter) was 77%.

`Cc1cc(C(F)(F)F)cc(N(C)NC2OC(=O)c3ccccc32)n1` (stereo not shown) [Compound 12] was tested, and the Growth [1] was 124%, the Status from algorithm (Agr P3 promoter) was “Active” and the β-Lactamase inhibition (Agr P3 promoter) was 76%.

`Cc1ccc(NN=C(C#N)C(=O)c2cc(C)nn2C(C)(C)C)cc1` [Compound 13] was tested, and the Growth [1] was 111%, the Status from algorithm (Agr P3 promoter) was “Active” and the β-Lactamase inhibition (Agr P3 promoter) was 75%.

In the case of `O=S(=O)(Nc1cc(C(F)(F)F)cc(C(F)(F)F)c1)c1cccc2nsnc12` [Compound 14], the Growth [1] is reported as 94%, the Status from algorithm (Agr P3 promoter) is reported as “Active” and the β-Lactamase inhibition (Agr P3 promoter) is reported as 77%. The “decrease in percent sporulation” value [2] was “more than 50%”.

`C=C1C(=O)OC2CC1C(OC(C)=O)CC(C)=CCCC(C)=CCCC2(C)O` (stereo not shown) [Compound 15] was tested, and the Growth [1] was 101%, the Status from algorithm (Agr P3 promoter) was “Active” and the β-Lactamase inhibition (Agr P3 promoter) was 76%.

In the case of `O=C(O)/C=C/c1ccc(Sc2ccc(Br)cc2)c([N+](=O)[O-])c1` [Compound 16], the Growth [1] is reported as 106%, the Status from algorithm (Agr P3 promoter) is reported as “Active” and the β-Lactamase inhibition (Agr P3 promoter) is reported as 78%.

In the case of `CN(C)/C=C/C(=O)c1sc(SCc2ccc(Cl)cc2)c2c1CC(C)(C)CC2=O` [Compound 17], the Growth [1] is reported as 87%, the Status from algorithm (Agr P3 promoter) is reported as “Active” and the β-Lactamase inhibition (Agr P3 promoter) is reported as 83%.

For `O=C1OC(c2cccnc2Sc2ccc(Cl)cc2)=NC1=Cc1ccc(C(F)(F)F)cc1` [Compound 18], the Growth [1] was 89%, the Status from algorithm (Agr P3 promoter) was “Active” and the β-Lactamase inhibition (Agr P3 promoter) was 75%.

With `CCCCCCCCCCCC(=O)OCC(O)CO` (stereo not shown) [GML, Glycerol monolaureate, reference compound] the “Behaviour” value (Agr P3 promoter) was “did not qualify as a hit in the screen” and the “RNAIII production (in words)” value (RNAIII [3]; FIGS. 14 and 15) was “showed no effect on RNAIII; also recorded: has no effect on RNAIII production”.

With `O=C(O)c1cn(C2CC2)c2cc(N3CCNCC3)c(F)cc2c1=O` [ciprofloxacin, reference compound] the “alpha-hemolysin activity (in words)” value (alpha-hemolysin) was “did not inhibit alpha-hemolysin activity” and the “Behaviour” value (Agr P3 promoter) was “do not behave as hits”.

In the case of `CN[C@H](CC(C)C)C(=O)N[C@H]1C(=O)N[C@@H](CC(N)=O)C(=O)N[C@H]2C(=O)N[C@H]3C(=O)N[C@H](C(=O)N[C@H](C(=O)O)c4cc(O)cc(O)c4-c4cc3ccc4O)[C@H](O)c3ccc(c(Cl)c3)Oc3cc2cc(c3O[C@@H]2O[C@H](CO)[C@@H](O)[C@H](O)[C@H]2O[C@H]2C[C@](C)(N)[C@H](O)[C@H](C)O2)Oc2ccc(cc2Cl)[C@H]1O` [vancomycin], the “alpha-hemolysin activity (in words)” value (alpha-hemolysin) is reported as “did not inhibit alpha-hemolysin activity”, the “treatment of infection (in words)” value (Staphylococcus aureus) is reported as “treatable” and the “Behaviour” value (Agr P3 promoter) is reported as “do not behave as hits”.

From patent US6020121A (priority 1996, dated 2000)
